According to ChEMBL document CHEMBL4765227, “Hit to lead optimization of a series of N-[4-(1,3-benzothiazol-2-yl)phenyl]acetamides as monoacylglycerol lipase inhibitors with potential anticancer activity” (Eur J Med Chem, 2016):

What was measured:
Assay type in all cases: functional
Settings in all cases: read-out: GI
NCI-H23 = test: Growth inhibition of human NCI-H23 cells at 10 uM incubated for 48 hrs by sulforhodamine B assay relative to control
CCRF-CEM = test: Growth inhibition of human CCRF-CEM cells at 10 uM incubated for 48 hrs by sulforhodamine B assay relative to control
HCT-116 = test: Growth inhibition of human HCT-116 cells at 10 uM incubated for 48 hrs by sulforhodamine B assay relative to control
LOX IMVI = test: Growth inhibition of human LOX IMVI cells at 10 uM incubated for 48 hrs by sulforhodamine B assay relative to control
NCI-H322M = test: Growth inhibition of human NCI-H322M cells at 10 uM incubated for 48 hrs by sulforhodamine B assay relative to control
SK-OV-3 = test: Growth inhibition of human SK-OV-3 cells at 10 uM incubated for 48 hrs by sulforhodamine B assay relative to control
M14 = test: Growth inhibition of human M14 cells at 10 uM incubated for 48 hrs by sulforhodamine B assay relative to control
IGROV-1 = test: Growth inhibition of human IGROV-1 cells at 10 uM incubated for 48 hrs by sulforhodamine B assay relative to control
SF-539 = test: Growth inhibition of human SF-539 cells at 10 uM incubated for 48 hrs by sulforhodamine B assay relative to control
HT-29 = test: Growth inhibition of human HT-29 cells at 10 uM incubated for 48 hrs by sulforhodamine B assay relative to control
786-0 = test: Growth inhibition of human 786-0 cells at 10 uM incubated for 48 hrs by sulforhodamine B assay relative to control
OVCAR-8 = test: Growth inhibition of human OVCAR-8 cells at 10 uM incubated for 48 hrs by sulforhodamine B assay relative to control
Hs-578T = test: Growth inhibition of human Hs-578T cells at 10 uM incubated for 48 hrs by sulforhodamine B assay relative to control
ACHN = test: Growth inhibition of human ACHN cells at 10 uM incubated for 48 hrs by sulforhodamine B assay relative to control
A549 = test: Growth inhibition of human A549/ATCC cells at 10 uM incubated for 48 hrs by sulforhodamine B assay relative to control
NCI/ADR-RES = test: Growth inhibition of human NCI/ADR-RES cells at 10 uM incubated for 48 hrs by sulforhodamine B assay relative to control
HOP-62 = test: Growth inhibition of human HOP-62 cells at 10 uM incubated for 48 hrs by sulforhodamine B assay relative to control
DU-145 = test: Growth inhibition of human DU-145 cells at 10 uM incubated for 48 hrs by sulforhodamine B assay relative to control
MDA-MB-231 = test: Growth inhibition of human MDA-MB-231 cells at 10 uM incubated for 48 hrs by sulforhodamine B assay relative to control
SR = test: Growth inhibition of human SR cells at 10 uM incubated for 48 hrs by sulforhodamine B assay relative to control
U-251 = test: Growth inhibition of human U-251 cells at 10 uM incubated for 48 hrs by sulforhodamine B assay relative to control
MDA-MB-435 = test: Growth inhibition of human MDA-MB-435 cells at 10 uM incubated for 48 hrs by sulforhodamine B assay relative to control
SK-MEL-5 = test: Growth inhibition of human SK-MEL-5 cells at 10 uM incubated for 48 hrs by sulforhodamine B assay relative to control
UO-31 = test: Growth inhibition of human UO-31 cells at 10 uM incubated for 48 hrs by sulforhodamine B assay relative to control
CAKI-1 = test: Growth inhibition of human CAKI-1 cells at 10 uM incubated for 48 hrs by sulforhodamine B assay relative to control
HL-60(TB) = test: Growth inhibition of human HL-60(TB) cells at 10 uM incubated for 48 hrs by sulforhodamine B assay relative to control
NCI-H522 = test: Growth inhibition of human NCI-H522 cells at 10 uM incubated for 48 hrs by sulforhodamine B assay relative to control
PC-3 = test: Growth inhibition of human PC-3 cells at 10 uM incubated for 48 hrs by sulforhodamine B assay relative to control
KM12 = test: Growth inhibition of human KM12 cells at 10 uM incubated for 48 hrs by sulforhodamine B assay relative to control
MCF7 = test: Growth inhibition of human MCF7 cells at 10 uM incubated for 48 hrs by sulforhodamine B assay relative to control
SF-295 = test: Growth inhibition of human SF-295 cells at 10 uM incubated for 48 hrs by sulforhodamine B assay relative to control
SN12C = test: Growth inhibition of human SN12C cells at 10 uM incubated for 48 hrs by sulforhodamine B assay relative to control
TK-10 = test: Growth inhibition of human TK-10 cells at 10 uM incubated for 48 hrs by sulforhodamine B assay relative to control
MOLT-4 = test: Growth inhibition of human MOLT-4 cells at 10 uM incubated for 48 hrs by sulforhodamine B assay relative to control
NCI-H226 = test: Growth inhibition of human NCI-H226 cells at 10 uM incubated for 48 hrs by sulforhodamine B assay relative to control
MDA-MB-468 = test: Growth inhibition of human MDA-MB-468 cells at 10 uM incubated for 48 hrs by sulforhodamine B assay relative to control
UACC-62 = test: Growth inhibition of human UACC-62 cells at 10 uM incubated for 48 hrs by sulforhodamine B assay relative to control
K562 = test: Growth inhibition of human K562 cells at 10 uM incubated for 48 hrs by sulforhodamine B assay relative to control
BT-549 = test: Growth inhibition of human BT-549 cells at 10 uM incubated for 48 hrs by sulforhodamine B assay relative to control
NCI-H460 = test: Growth inhibition of human NCI-H460 cells at 10 uM incubated for 48 hrs by sulforhodamine B assay relative to control
RXF 393 = test: Growth inhibition of human RXF 393 cells at 10 uM incubated for 48 hrs by sulforhodamine B assay relative to control
OVCAR-4 = test: Growth inhibition of human OVCAR-4 cells at 10 uM incubated for 48 hrs by sulforhodamine B assay relative to control
COLO 205 = test: Growth inhibition of human COLO 205 cells at 10 uM incubated for 48 hrs by sulforhodamine B assay relative to control
OVCAR-3 = test: Growth inhibition of human OVCAR-3 cells at 10 uM incubated for 48 hrs by sulforhodamine B assay relative to control

`O=C(CNc1nnc(-c2ccc(Cl)cc2)o1)Nc1ccc(-c2nc3ccccc3s2)cc1` showed an inhibition of growth at 10 µM (NCI-H23) of 11.3%, an inhibition of growth at 10 µM (CCRF-CEM) of 46.7% and an inhibition of growth at 10 µM (HCT-116) of 10.2%. The inhibition of growth at 10 µM (LOX IMVI) was 143%, the inhibition of growth at 10 µM (NCI-H322M) was 4.86% and the inhibition of growth at 10 µM (SK-OV-3) was -16.6%. The inhibition of growth at 10 µM (M14) was -1.85%, the inhibition of growth at 10 µM (IGROV-1) was 5.85% and the inhibition of growth at 10 µM (SF-539) was 2.97%. It also gave an inhibition of growth at 10 µM (HT-29) of 4.3%, an inhibition of growth at 10 µM (786-0) of -1.02% and an inhibition of growth at 10 µM (OVCAR-8) of -2.95%. The inhibition of growth at 10 µM (Hs-578T) was 3.06%, the inhibition of growth at 10 µM (ACHN) was -12% and the inhibition of growth at 10 µM (A549) was 4.18%. It also gave an inhibition of growth at 10 µM (NCI/ADR-RES) of 1.07%, an inhibition of growth at 10 µM (HOP-62) of -6.78% and an inhibition of growth at 10 µM (DU-145) of 1.53%. The inhibition of growth at 10 µM (MDA-MB-231) was 1.2%, the inhibition of growth at 10 µM (SR) was 28.2% and the inhibition of growth at 10 µM (U-251) was 18.4%. The inhibition of growth at 10 µM (MDA-MB-435) was 2.95%, the inhibition of growth at 10 µM (SK-MEL-5) was 7.93% and the inhibition of growth at 10 µM (UO-31) was 26.7%. It also gave an inhibition of growth at 10 µM (CAKI-1) of -0.31%, an inhibition of growth at 10 µM (HL-60(TB)) of 6.27% and an inhibition of growth at 10 µM (NCI-H522) of 22.9%. It also gave an inhibition of growth at 10 µM (PC-3) of 11.4%, an inhibition of growth at 10 µM (KM12) of 2.99% and an inhibition of growth at 10 µM (MCF7) of 65.5%. For the same molecule, the inhibition of growth at 10 µM (SF-295) was -1.52%, the inhibition of growth at 10 µM (SN12C) was 5.48% and the inhibition of growth at 10 µM (TK-10) was 8.25%. For the same molecule, the inhibition of growth at 10 µM (MOLT-4) was 66.8%, the inhibition of growth at 10 µM (NCI-H226) was 17.1% and the inhibition of growth at 10 µM (MDA-MB-468) was 110%. The inhibition of growth at 10 µM (UACC-62) was 13.9%, the inhibition of growth at 10 µM (K562) was 14.4% and the inhibition of growth at 10 µM (BT-549) was 13%. For the same molecule, the inhibition of growth at 10 µM (NCI-H460) was 0.31%, the inhibition of growth at 10 µM (RXF 393) was -0.2% and the inhibition of growth at 10 µM (OVCAR-4) was -3.22%. It also gave an inhibition of growth at 10 µM (COLO 205) of -4.34% and an inhibition of growth at 10 µM (OVCAR-3) of 2.27%.

For `Cc1cc(NCC(=O)Nc2ccc(-c3nc4ccccc4s3)cc2)no1`, the inhibition of growth at 10 µM (NCI-H23) was 17.2%, the inhibition of growth at 10 µM (CCRF-CEM) was 46.3% and the inhibition of growth at 10 µM (HCT-116) was 9.26%. It also gave an inhibition of growth at 10 µM (LOX IMVI) of 143%, an inhibition of growth at 10 µM (NCI-H322M) of -1.5% and an inhibition of growth at 10 µM (SK-OV-3) of -19.7%. The inhibition of growth at 10 µM (M14) was -5.87%, the inhibition of growth at 10 µM (IGROV-1) was 11.5% and the inhibition of growth at 10 µM (SF-539) was -5.46%. The inhibition of growth at 10 µM (HT-29) was -4.71%, the inhibition of growth at 10 µM (786-0) was -1.59% and the inhibition of growth at 10 µM (OVCAR-8) was 3.61%. The inhibition of growth at 10 µM (Hs-578T) was -1.12%, the inhibition of growth at 10 µM (ACHN) was -10.7% and the inhibition of growth at 10 µM (A549) was 7.66%. It also gave an inhibition of growth at 10 µM (NCI/ADR-RES) of -2.68%, an inhibition of growth at 10 µM (HOP-62) of -10.9% and an inhibition of growth at 10 µM (DU-145) of 4.13%. The inhibition of growth at 10 µM (MDA-MB-231) was -8.49%, the inhibition of growth at 10 µM (SR) was 30.1% and the inhibition of growth at 10 µM (U-251) was 11.9%. For the same molecule, the inhibition of growth at 10 µM (MDA-MB-435) was -4.18%, the inhibition of growth at 10 µM (SK-MEL-5) was 12.3% and the inhibition of growth at 10 µM (UO-31) was 23%. It also gave an inhibition of growth at 10 µM (CAKI-1) of -3.5%, an inhibition of growth at 10 µM (HL-60(TB)) of 3.55% and an inhibition of growth at 10 µM (NCI-H522) of 17.9%. For the same molecule, the inhibition of growth at 10 µM (PC-3) was 3.37%, the inhibition of growth at 10 µM (KM12) was -1.64% and the inhibition of growth at 10 µM (MCF7) was 64.1%. For the same molecule, the inhibition of growth at 10 µM (SF-295) was 3.62%, the inhibition of growth at 10 µM (SN12C) was -2.43% and the inhibition of growth at 10 µM (TK-10) was 7.91%. The inhibition of growth at 10 µM (MOLT-4) was 53.2%, the inhibition of growth at 10 µM (NCI-H226) was 8.98% and the inhibition of growth at 10 µM (MDA-MB-468) was 147%. For the same molecule, the inhibition of growth at 10 µM (UACC-62) was 13.5%, the inhibition of growth at 10 µM (K562) was 17% and the inhibition of growth at 10 µM (BT-549) was 5.29%. It also gave an inhibition of growth at 10 µM (NCI-H460) of -2.65%, an inhibition of growth at 10 µM (RXF 393) of -4.8% and an inhibition of growth at 10 µM (OVCAR-4) of -10.7%. The inhibition of growth at 10 µM (COLO 205) was -7.78% and the inhibition of growth at 10 µM (OVCAR-3) was 0.7%.
